In brackets after ≈: the same amount, converted by molar mass.

Holding throughout (assay type): cell-based
For assay [1], the system named is Aspergillus fumigatus MYA3626. Kind of assay: In vitro antifungal assay (Example IX), microdilution broth, MEC. The following applies: minimum effective concentration (shortening of hyphae), 35° C., 40-48 h, RPMI1640. The essentials: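 Spore suspensions of A. fumigatus and R. pusillus adjusted to 1-2×10^4 spores/mL in RPMI1640 and exposed to compound dilutions prepared in DMSO, by broth microdilution. MEC taken as the lowest concentration shortening hyphae versus DMSO control wells, read as for echinocandins.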
In general terms: Broth dilution looks for growth in wells or tubes with falling amounts of substance.

A further assay deals with Candida albicans 90028. Kind of assay: In vitro antifungal assay (Example IX), microdilution broth, MIC. To be noted: minimum inhibitory concentration (≥50% inhibition), 35° C., 40-48 h, RPMI1640. The essentials: (§1)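 CLSI broth microdilution in RPMI1640 with 2.5×10^3 cells/mL and final compound concentrations of 2-0.0019 μg/mL (1% DMSO). C. albicans 90028 plates were incubated at 35° C. for 40-48 h and C. neoformans H99 for 72 h. MIC was read as minimum inhibitory concentration, verified at 600 nm.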

The test system of assay [2] is Cryptococcus neoformans H99. The description is as above. The following applies: minimum inhibitory concentration (≥50% inhibition), 35° C., 72 h, RPMI1640. An outline of the steps: as §1
A further assay relates to Cryptococcus gattii. The assay is described as above. To be noted: minimum inhibitory concentration (≥50% inhibition), 35° C., 72 h (Cryptococcus), RPMI1640. How it is done:
Preparation of Fungal Suspension. C. albicans 90028 and C. neoformans H99 strains were streaked from frozen stocks at −80° C. onto Sabouraud Dextrose Agar (SDA) plates. These were allowed to grow for 24 h (C. albicans) and 48 h (C. neoformans) at 35° C. before using them in the assay. 5-6 individual colonies were picked and diluted into sterile water to obtain a fungal suspension. The cell density of the suspension was determined and the culture diluted with RPMI1640 medium to obtain a fungal suspension of 2.5×10^3 cells/mL. The suspension was used in the MIC measurement as described below.
Preparation of Compound Stocks and Intermediate Dilutions: The compounds were weighed and DMSO was added to prepare a 10 mg/mL stock. The solutions were mixed by vortexing and sonication at 37° C. for 5-10 mins. The resulting solutions were sterile filtered using a PTFE filter, and aliquoted (12 μL or as needed) and stored at −20° C. Intermediate compound dilutions were prepared in sterile polypropylene tubes in 100% DMSO. The compound stock solution was first diluted in DMSO to obtain a concentration of […] to 0.19 μg/mL.
MIC/MEC Measurement: 99 μL 1 of the fungal suspension in RPMI1640 prepared as above was added to each well of a 96-well round bottom assay plate. 1 μL of the intermediate compound dilutions (200-0.19 μg/mL) were added to wells of the plate. This led to a 100-fold dilution of the intermediate dilutions resulting in a final compound concentration of 2-0.0019 μg/mL in the plate. 1 μL of DMSO was added to “No drug” control wells. The solutions were mixed by shaking on a plate shaker for 10 mins and plates incubated at 35° C. for 40-48 h (C. albicans, A. fumigatus, R. pusillus) and 72 h (Cryptococcus). […] This was validated by thorough mixing and reading at 600 nm on a microplate reader. The minimum concentration that led to shortening of hyphae as compared to hyphal growth in DMSO control wells was determined as the minimum effective concentration (MEC) for A. fumigatus and R. pusillus (as read for echinocandins). The use of the MIC and MEC endpoints against yeasts and molds, respectively has been described by Pfaller M A, Duncanson F, Messer S A, Moet G J, Jones R N, Castanheira M. Antimicrob Agents Chemother. 2011. 55(11):5155-8. In vitro activity of a novel broad-spectrum antifungal, E1210, tested against Aspergillus spp. determined by CLSI and EUCAST broth microdilution methods. Results are shown in Table 2, and the letters indicate the following ranges in μg/mL: […]

In general, minimal effective concentration refers to the lowest level tested that produced the effect sought. The term MIC denotes the least concentration at which growth counts as inhibited. A higher MIC goes with a need for much substance. For the molecule `Nc1ncccc1-c1cc(Cc2ccc(/C=C/c3cccc(F)c3)cc2)no1` [compound 233, (E)-3-(3-(4-(3-fluorostyryl)benzyl)isoxazol-5-yl)pyridin-2-amine], the minimal effective concentration in assay [1] was in the range of 0.1 to 1 µg/mL. Further, the MIC (in the assay with Candida albicans 90028; in assay [2]; against Cryptococcus gattii) was over 1 µg/mL throughout.

`Nc1ncccc1-c1cc(Cc2ccc(Nc3cc(F)cc(F)c3)nc2)no1` [compound 238, 5-((5-(2-aminopyridin-3-yl)isoxazol-3-yl)methyl)-N-(3,5-difluorophenyl)pyridin-2-amine] came in with a minimal effective concentration in assay [1] of over 1 µg/mL. Besides, the MIC in the assay with Candida albicans 90028 was over 1 µg/mL; in assay [2], 0.1 to 1 µg/mL (≈ 0.264 to 2.64 µM); against Cryptococcus gattii, 0.1 to 1 µg/mL (≈ 0.264 to 2.64 µM).

In turn, `Nc1ncccc1-c1cc(Cc2cnc(OCC3CC3)c(F)c2)no1` [compound 247, 3-(3-((6-(cyclopropylmethoxy)-5-fluoropyridin-3-yl)methyl)isoxazol-5-yl)pyridin-2-amine] displayed a minimal effective concentration in assay [1] of 0.01 to 0.1 µg/mL. The figures for the MIC (with Candida albicans 90028; in assay [2]; against Cryptococcus gattii) were 0.01 to 0.1 µg/mL (≈ 0.0294 to 0.294 µM), 0.1 to 1 µg/mL (≈ 0.294 to 2.94 µM) and over 1 µg/mL, respectively.

Take `Nc1ncccc1-c1cc(Cc2cnc(Oc3cc(F)cc(F)c3)nc2)no1` [compound 248, 3-(3-((2-(3,5-difluorophenoxy)pyrimidin-5-yl)methyl)isoxazol-5-yl)pyridin-2-amine]: the minimal effective concentration in assay [1] lay within 0.1 to 1 µg/mL. Further, the MIC (in the assay on Candida albicans 90028; in assay [2]; against Cryptococcus gattii) was over 1 µg/mL in each case.

`Nc1ncccc1-c1cc(Cc2cnc(OCc3cccc(F)c3)nc2)no1` [compound 249, 3-(3-((2-((3-fluorobenzyl)oxy)pyrimidin-5-yl)methyl)isoxazol-5-yl)pyridin-2-amine]: the minimal effective concentration in assay [1] was 0.01 to 0.1 µg/mL. The minimum inhibitory concentration (MIC) in the assay on Candida albicans 90028 is 0.1 to 1 µg/mL (≈ 0.265 to 2.65 µM); in assay [2], 0.1 to 1 µg/mL (≈ 0.265 to 2.65 µM); in the assay with Cryptococcus gattii, over 1 µg/mL.

The molecule `Nc1ncccc1-c1cc(Cc2cnc(OCc3cccc(F)c3)c(F)c2)no1` [compound 251, 3-(3-((5-fluoro-6-((3-fluorobenzyl)oxy)pyridin-3-yl)methyl)isoxazol-5-yl)pyridin-2-amine] had a minimal effective concentration in assay [1] of 0.01 to 0.1 µg/mL. The MIC (against Candida albicans 90028; in assay [2]; against Cryptococcus gattii) was 0.1 to 1 µg/mL (≈ 0.254 to 2.54 µM) each time.

With `Nc1ncccc1-c1cc(Cc2cnc(Oc3cc(F)cc(F)c3)c(F)c2)no1` [compound 252, 3-(3-((6-(3,5-difluorophenoxy)-5-fluoropyridin-3-yl)methyl)isoxazol-5-yl)pyridin-2-amine], the minimal effective concentration in assay [1] lay in the range of 0.1 to 1 µg/mL. Also, the MIC (with Candida albicans 90028; in assay [2]; with Cryptococcus gattii) was 0.1 to 1 µg/mL (≈ 0.251 to 2.51 µM) throughout.

As for `Nc1ncccc1-c1cc(Cc2cnc(Oc3ccccc3F)c(F)c2)no1` [compound 254, 3-(3-((5-fluoro-6-(2-fluorophenoxy)pyridin-3-yl)methyl)isoxazol-5-yl)pyridin-2-amine], in assay [1], the minimal effective concentration fell in the range of 0.01 to 0.1 µg/mL. Moreover, the MIC against Candida albicans 90028 is 0.01 to 0.1 µg/mL (≈ 0.0263 to 0.263 µM); in assay [2] it was 0.1 to 1 µg/mL (≈ 0.263 to 2.63 µM); in the assay on Cryptococcus gattii, over 1 µg/mL.

Take `Nc1ncccc1-c1cc(Cc2cnc(Oc3ccccc3)c(F)c2)no1` [compound 255, 3-(3-((5-fluoro-6-phenoxypyridin-3-yl)methyl)isoxazol-5-yl)pyridin-2-amine]: the minimal effective concentration in assay [1] is 0.01 to 0.1 µg/mL. The results for the MIC (with Candida albicans 90028; in assay [2]; against Cryptococcus gattii) were 0.01 to 0.1 µg/mL (≈ 0.0276 to 0.276 µM), 0.1 to 1 µg/mL (≈ 0.276 to 2.76 µM) and over 1 µg/mL, respectively.

`Nc1ncccc1-c1cc(Cc2cnc(Oc3cccc(F)c3)c(F)c2)no1` [compound 256, 3-(3-((5-fluoro-6-(3-fluorophenoxy)pyridin-3-yl)methyl)isoxazol-5-yl)pyridin-2-amine] returned a minimal effective concentration in assay [1] of 0.1 to 1 µg/mL. The figures for the MIC (against Candida albicans 90028; in assay [2]; with Cryptococcus gattii) were 0.01 to 0.1 µg/mL (≈ 0.0263 to 0.263 µM), 0.1 to 1 µg/mL (≈ 0.263 to 2.63 µM) and over 1 µg/mL, respectively.

Take `Nc1ncccc1-c1cc(Cc2ccc(Oc3ncccn3)c(F)c2)no1` [compound 259, 3-(3-(3-fluoro-4-(pyrimidin-2-yloxy)benzyl)isoxazol-5-yl)pyridin-2-amine]: the minimal effective concentration in assay [1] lay within 0.01 to 0.1 µg/mL. In addition, the MIC is over 1 µg/mL with Candida albicans 90028, 0.1 to 1 µg/mL (≈ 0.275 to 2.75 µM) in assay [2] and over 1 µg/mL with Cryptococcus gattii.

For the origin of these results see patent publication US11512079B2, “Heterocycle substituted pyridine derivative antifungal agents” (Amplyx Pharmaceuticals, Inc., priority 2017, dated 2022).
